The values that follow come from PubChem BioAssay (NCI).

Where “and” joins values, the source holds several entries; their conditions need not be identical. Equal entries are not always repeated.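 Cells were grown in 96-well plates and exposed to each compound for 48 hours at five concentrations; endpoints were interpolated linearly between bracketing concentrations, or set to the highest concentration if not reached. At the GI50, growth is halved. TGI marks complete inhibition of growth.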 Some results are limits rather than exact numbers.

Test systems include OVCAR-5 ovarian; MOLT-4 leukemia; M14 melanoma; HOP-92 NSCLC; SK-OV-3 ovarian; U251 CNS; NCI-H522 lung; CCRF-CEM leukemia; KM12 colon; 786-0 renal; SF-539 CNS; SF-268 CNS; ACHN renal.
Common to all, as to test: NCI-60 cell line screen, 48 h

Consider `O=S1C2=C(Cc3ccccc3)C(Cc3ccccc3)=C1CCc1cccc(c1)CC2`, for which the TGI in the test on OVCAR-5 ovarian worked out at 35.5 µM; in the test with MOLT-4 leukemia it was 63.7 µM; with M14 melanoma it was 29 µM; in the test with HOP-92 NSCLC it was 26.4 µM; in the test on SK-OV-3 ovarian it was 24.3 µM; in the test with U251 CNS, 26.8 µM. For the same compound, the TGI with NCI-H522 lung was 27.6 µM; in the test on CCRF-CEM leukemia, above 100 µM; in the test with KM12 colon it was 26.7 µM; with 786-0 renal, 28.9 µM; with SF-539 CNS it was 41 µM; in the test with SF-268 CNS, 31.8 µM. This compound also displayed a TGI in the test on ACHN renal of 30.8 µM.

Consider `OC1COC(n2c3ccc(Br)cc3c3ccc4c5ccccc5[nH]c4c32)C(O)C1O` (stereo not drawn), for which the TGI with OVCAR-5 ovarian was found to be 12.4 µM; in the test with MOLT-4 leukemia, 11.2 µM; with M14 melanoma, 15.3 µM; with HOP-92 NSCLC it was 9.38 µM; with SK-OV-3 ovarian, 17.7 µM; in the test with U251 CNS, 32.1 µM. In addition, the TGI is 11.3 µM in the test with NCI-H522 lung; 19.3 µM in the test with CCRF-CEM leukemia; 3.53 µM in the test on KM12 colon; 17.8 µM in the test on 786-0 renal; 16.2 µM in the test with SF-539 CNS; 19.9 µM in the test on SF-268 CNS. Further, the TGI in the test with ACHN renal was found to be 10.9 µM.

As for `CCOC(=O)CCC(NC(=O)c1ccc(N2CCN(c3c(C)nc(N)nc3N)CC2)cc1)C(=O)OCC` (stereo not drawn), the TGI in the test on OVCAR-5 ovarian was above 100 µM; with MOLT-4 leukemia it was above 100 µM; with M14 melanoma, above 46 µM; in the test on HOP-92 NSCLC, above 100 µM; in the test with SK-OV-3 ovarian, above 100 µM; with U251 CNS it was above 100 µM. The TGI in the test with NCI-H522 lung was above 100 µM; in the test on CCRF-CEM leukemia it was 4.9 µM; in the test with KM12 colon, above 100 µM; in the test on 786-0 renal, above 100 µM; in the test with SF-539 CNS, above 100 µM; with SF-268 CNS, above 100 µM. Also, the TGI in the test on ACHN renal is above 100 µM.

`COC(=O)c1cc(C#Cc2cc(OC)ccc2OC)ccc1OC`: the TGI with OVCAR-5 ovarian is above 100 µM; with MOLT-4 leukemia, 70 µM; with M14 melanoma it was above 100 µM; in the test on HOP-92 NSCLC, 85.9 µM; in the test on SK-OV-3 ovarian, above 100 µM; with U251 CNS, above 100 µM. For the same compound, the TGI in the test on NCI-H522 lung, in the test with CCRF-CEM leukemia, in the test with KM12 colon, in the test on 786-0 renal, in the test with SF-539 CNS and in the test with SF-268 CNS was above 100 µM each time. In addition, the TGI in the test on ACHN renal was above 100 µM. Moreover, the GI50 with CCRF-CEM leukemia is 36.8 µM; in the test with SF-539 CNS, 81.1 µM.

For `COc1ccc2c(c1)c1c(n2CCN2CCCCC2)-c2ccccc2CC1`, the TGI in the test with OVCAR-5 ovarian turned out to be 31.2 µM; in the test on MOLT-4 leukemia, 40.7 µM; in the test with M14 melanoma, 28.7 µM; in the test with HOP-92 NSCLC, 31.9 µM; in the test on SK-OV-3 ovarian it was 40.9 µM; with U251 CNS it was 30.5 µM. Further, the TGI in the test with NCI-H522 lung is 21.8 µM; with CCRF-CEM leukemia, 47.4 µM; in the test with KM12 colon it was 27.3 µM; in the test on 786-0 renal, 34.5 µM; in the test with SF-539 CNS it was 27.4 µM; in the test with SF-268 CNS, 30 µM. The TGI in the test on ACHN renal came out at 33.3 µM.

On to `CC(C)=CCSC1CC2C(CC1(C)O)C2(C)C` (stereo not drawn), for which the TGI with OVCAR-5 ovarian was 28.2 µM and 30.1 µM; in the test with MOLT-4 leukemia it was 40.9 µM and 67.5 µM; in the test with M14 melanoma it was 32 µM and 27.9 µM; with HOP-92 NSCLC it was 30.4 µM and 27 µM; in the test on SK-OV-3 ovarian it was 28.2 µM and 29.7 µM; in the test on U251 CNS, 28.5 µM and 27.1 µM. For the same compound, the TGI was 26.9 µM and 18.8 µM in the test with NCI-H522 lung; > 100 µM and 38.7 µM in the test with CCRF-CEM leukemia; 35.7 µM and 27.7 µM in the test on KM12 colon; 29.6 µM and 25.8 µM in the test with 786-0 renal; 32.3 µM and 29.6 µM in the test on SF-539 CNS; 34.9 µM and 29.8 µM in the test with SF-268 CNS. The TGI in the test on ACHN renal is 31 µM and 31.3 µM. The GI50 in the test with NCI-H522 lung is 13.3 µM and 4.38 µM; in the test on CCRF-CEM leukemia, 26 µM and 12.8 µM.

For `CCC(=O)O[C@H]1CC[C@H]2[C@@H]3CCC4=C/C(=N/NC(=O)c5cccc6c(=O)c7ccccc7[nH]c56)CC[C@]4(C)[C@H]3CC[C@]12C`, the TGI in the test with OVCAR-5 ovarian, in the test on MOLT-4 leukemia, in the test on M14 melanoma, with HOP-92 NSCLC, with SK-OV-3 ovarian and with U251 CNS was above 25 µM in each case. Besides, the TGI was above 25 µM in the test on NCI-H522 lung; above 25 µM in the test with CCRF-CEM leukemia; above 25 µM in the test on KM12 colon; 10.3 µM with 786-0 renal; above 25 µM in the test on SF-539 CNS; above 25 µM with SF-268 CNS. The same compound displayed a TGI in the test with ACHN renal above 25 µM.

In the case of `COCCOCCOC1=C(Cl)C(=O)c2c(O)ccc(O)c2C1=O`, the TGI with OVCAR-5 ovarian came to 22.6 µM; in the test with MOLT-4 leukemia, 2.37 µM; with M14 melanoma, 3.29 µM; in the test with HOP-92 NSCLC it was 3.95 µM; in the test with SK-OV-3 ovarian, 33.3 µM; in the test with U251 CNS, 17.4 µM. Also, the TGI in the test on NCI-H522 lung stood at 2.99 µM; with CCRF-CEM leukemia, 45.1 µM; with KM12 colon, 31.9 µM; with 786-0 renal, 2.61 µM; in the test with SF-539 CNS, 3.69 µM; with SF-268 CNS, 7.26 µM. Moreover, the TGI in the test with ACHN renal came to 3.5 µM.

`O=C1CCCCc2cccc(O)c21`: the TGI in the test on OVCAR-5 ovarian, in the test with MOLT-4 leukemia, with M14 melanoma, with HOP-92 NSCLC, with SK-OV-3 ovarian and in the test on U251 CNS was above 100 µM in each case. Besides, the TGI in the test with NCI-H522 lung, in the test on CCRF-CEM leukemia, in the test with KM12 colon, with 786-0 renal, in the test with SF-539 CNS and in the test with SF-268 CNS was above 100 µM throughout. In the test with ACHN renal, this compound came in with a TGI above 100 µM.

Consider `CCC(CC)n1c(C)nc2c1C(=O)c1ccccc1C2=O`, for which the TGI in the test on MOLT-4 leukemia, in the test with M14 melanoma, in the test on HOP-92 NSCLC, with SK-OV-3 ovarian, in the test on U251 CNS and in the test on NCI-H522 lung was above 100 µM in each case. For the same compound, the TGI in the test on CCRF-CEM leukemia, with KM12 colon, with 786-0 renal, in the test on SF-539 CNS, in the test with SF-268 CNS and in the test with ACHN renal was above 100 µM throughout.
